Data set [1] deals with MCMV strain Smith. In words: Plaque reduction assay for antiviral activity, MCMV in MEF cells. Format: cell-based. Conditions: read-out: MCMV EC50. (In general: Plaque reduction counts the foci of infection that form in a cell layer.)
The subject of data set [2] is human foreskin fibroblast (HFF) cells.
Data set [3] concerns HCMV strain AD-169. In words: Plaque reduction assay for antiviral activity, HCMV in HFF cells. Format: cell-based. Conditions: read-out: HCMV EC50.
Data set [4] concerns Vaccinia Copenhagen. In words: microbe, parasite or virus in culture. In kind it is cell-based, vaccinia virus (VV). Conditions: read-out: Vaccinia Copenhagen EC50.
Data set [5] deals with Cowpox Brighton. In words: microbe, parasite or virus in culture. Format: cell-based, cowpox virus (CV). The conditions noted are these: read-out: Cowpox Brighton EC50.
Data set [6] can be described thus: in vitro. Conditions: human.
Where [7] appears, read: HFF cells, 8-day incubation, value without SD = single determination.

The text below walks through data of US8193167B2, “Pharmacologically active agents containing esterified phosphonates and methods for use thereof” (priority 2004, dated 2012).

Counter-ions that a name gives are not always drawn. Like-named read-outs stand apart in the source and are kept apart here.

What is called EC50 is the concentration at which the effect is half-maximal. Consider `CCCCCCCCCCCCCCCCCCCCCCOP(=O)(O)COC(CO)Cn1ccc(N)nc1=O` (centres unmarked) [DC-CDV, Docosyl Cidofovir, Sodium Salt], for which the EC50 is 850 ± 7 nM in data set [1] (MEF cells, 7-day incubation) and 4 nM in data set [3] (setting [7]). This compound also showed a CC50 in data set [2] of 79600 nM.
With `CCCCCCCCOP(=O)(O)CO[C@H](CO)Cn1ccc(N)nc1=O` [O-CDV, Octyl Cidofovir, Sodium Salt], the concentration giving a half-maximal response (EC50) is greater than 10000 nM in data set [1] (MEF cells, 7-day incubation); greater than 20000 nM in data set [4]; greater than 20000 nM in data set [5]; 5250 ± 5700 nM in data set [3] (setting [7]). The compound further displayed a CC50 in data set [2] greater than 100000 nM.
For the compound `CCCCCCCCCCCCCCCCOP(=O)(O)COC(CO)Cn1ccc(N)nc1=O` (centres unmarked) [HD-CDV, Hexadecyl Cidofovir, Sodium Salt], the EC50 in data set [1] (MEF cells, 7-day incubation) was found to be 20 nM; in data set [4] it was 3100 ± 100 nM; in data set [5], 6000 ± 2000 nM; in data set [3] (setting [7]), 5 nM. The same compound gave a CC50 in data set [2] greater than 157000 nM.
On to `CCCCCCCCCCCCCCCCCCCCCCOP1(=O)COC(Cn2ccc(N)nc2=O)CO1` (mixture of isomers) [DC-cCDV, Docosyl Cyclic Cidofovir], for which the EC50 in data set [1] (MEF cells, 7-day incubation) turned out to be 2800 ± 1700 nM; in data set [3] (setting [7]), 32 nM. In data set [2], the CC50 was greater than 100000 nM.
In the case of `CCCCCCCCCCCCCCCCCCCCOP(=O)(O)CO[C@H](CO)Cn1ccc(N)nc1=O` [EC-CDV, Eicosyl Cidofovir, Sodium Salt], the 50% effective concentration (EC50) in data set [1] (MEF cells, 7-day incubation) was 5 nM; in data set [4], 1600 ± 1300 nM; in data set [5], 1500 ± 900 nM; in data set [3] (setting [7]), 0.7 nM.
For the compound `CCCCCCCCCCCCCCCCCCCCCCCCOP(=O)(O)CO[C@H](CO)Cn1ccc(N)nc1=O` [TC-CDV, Tetracosyl Cidofovir, Sodium Salt], the EC50 is 7450 ± 640 nM in data set [1] (MEF cells, 7-day incubation); greater than 17000 nM in data set [4]; greater than 20000 nM in data set [5]; 6 nM in data set [3] (setting [7]). The same compound displayed a CC50 in data set [2] greater than 100000 nM.
`Nc1ccn(C[C@H]2COP(=O)(O)CO2)c(=O)n1` [cCDV, Cyclic Cidofovir, reference compound]: the half-maximal effective concentration (EC50) in data set [1] (168 h, MEF cells, 7-day incubation) was found to be 230 ± 70 nM; in data set [3] (Human betaherpesvirus 5, AD169, 192 h, HFF cells, 8-day incubation, value without SD = single determination), 3100 ± 1800 nM. For the same compound, in data set [6], the CC50 is greater than 331000 nM.
Regarding `CCCCCCCCCCCCCCCCOP1(=O)COC(Cn2ccc(N)nc2=O)CO1` (mixture of isomers) [HD-cCDV, Hexadecyl Cyclic Cidofovir], the EC50 came out at 130 ± 10 nM in data set [1] (MEF cells, 7-day incubation) and 3100 ± 2350 nM in data set [3] (setting [7]). Further, the CC50 in data set [2] turned out to be 83000 ± 20000 nM.
For the compound `Nc1ccn(C[C@@H](CO)OCP(=O)(O)O)c(=O)n1` [CDV, Cidofovir, reference compound], the EC50 in data set [1] (MEF, 168 h) came out at 40 ± 30 nM; in data set [4] (Orthopoxvirus vaccinia, HFF), 31000 ± 5400 nM; in data set [5] (Cowpox virus, HFF) it was 42000 ± 5400 nM; in data set [3] (Human betaherpesvirus 5, AD169, HFF, 192 h), 1200 ± 430 nM. This compound also gave a CC50 in data set [6] greater than 317000 nM.
`CCCCCCCCCCCCOP(=O)(O)CO[C@H](CO)Cn1ccc(N)nc1=O` [DD-CDV, Dodecyl Cidofovir, Sodium Salt]: the concentration giving a half-maximal response (EC50) in data set [1] (MEF cells, 7-day incubation) was greater than 10000 nM; in data set [4], greater than 20000 nM; in data set [5], greater than 20000 nM; in data set [3] (setting [7]) it was 310 ± 190 nM. In addition, in data set [2], the CC50 was greater than 100000 nM.
On to `CCCCCCCCCCCCCCCCCCCCOP1(=O)CO[C@@H](Cn2ccc(N)nc2=O)CO1` (some centres unmarked) [EC-cCDV, Eicosyl Cyclic Cidofovir], for which the EC50 in data set [1] (MEF cells, 7-day incubation) is 230 ± 10 nM; in data set [3] (setting [7]) it was 11 nM. In data set [2], this compound showed a CC50 of 86100 nM.
The like results for `CCCCCCCCCCCCCCCCCCCCCCCCOP1(=O)CO[C@@H](Cn2ccc(N)nc2=O)CO1` (some centres unmarked) [TC-cCDV, Tetracosyl Cyclic Cidofovir] were, in that order, 2300 ± 1300 nM, 320 nM and greater than 100000 nM.
